Measured values reported in patent US10738057B2, “Tertiary alcohols as PI3K-γ inhibitors” (Incyte Corporation, priority 2017, dated 2020).
Where a name gives a salt, the structure may show the parent alone.

Key:
[1] = target: PI3Kγ (p110γ) Recombinant Human Protein (Homo sapiens (Human), UniProt P48736); experiment: PI3K-γ scintillation proximity assay; type: biochemical; conditions: 20 μM PIP2, 2 μM ATP, 13 nM PI3Kγ, 120 min, room temperature
Description: Example B. PI3K-γ Scintillation Proximity Assay
[γ-^33P]ATP (10 mCi/mL) and Wheat Germ Agglutinin (WGA) YSi SPA Scintillation Beads was purchased from PerkinElmer (Waltham, Mass.). Lipid kinase substrate, D-myo-Phosphatidylinositol 4,5-bisphosphate (PtdIns(4,5)P2)D (+)-sn-1,2-di-O-octanoylglyceryl, 3-O-phospho linked (PIP2), CAS 204858-53-7, was purchased from Echelon Biosciences (Salt Lake City, Utah). PI3Kγ (p110γ) Recombinant Human Protein was purchased from Life technology (Grand Island, N.Y.). ATP, MgCl2, DTT, EDTA, MOPS and CHAPS were purchased from SigmaAldrich (St. Louis, Mo.).
(§1) The kinase reaction was conducted in polystyrene 384-well Greiner Bio-one white plate from Thermo Fisher Scientific in a final volume of 25 μL. Inhibitors were first diluted serially in DMSO and added to the plate wells before the addition of other reaction components. The final concentration of DMSO in the assay was 2%. The PI3Kγ assay was carried out at room temperature in 20 mM MOPS, pH 6.7, 10 mM MgCl2, 5 mM DTT and CHAPS 0.03%. Reactions were initiated by the addition of ATP, the final reaction mixture consisted of 20 μM PIP2, 2 μM ATP, 0.5 μCi [γ-^33P] ATP, 13 nM PI3Kγ. Reactions were incubated for 120 min and terminated by the addition of 40 μL SPA beads suspended in quench buffer: 163 mM potassium phosphate pH 7.8, 20% glycerol, 25 mM EDTA. The final concentration of SPA beads is 1.0 mg/mL. After the plate sealing, plates were shaken overnight at room temperature and centrifuged at 1500 rpm for 10 min, the radioactivity of the product was determined by scintillation counting on Topcount (Perkin-Elmer). IC50 determination was performed by fitting the curve of percent of the solvent control activity versus the log of the inhibitor concentration using the GraphPad Prism 6.0 software.

[2] = target: PI3Kδ (p110δ/p85α) Recombinant Human Protein (Homo sapiens (Human), UniProt O00329); experiment: PI3Kδ scintillation proximity assay; type: biochemical; conditions: 20 μM PIP2, 2 μM ATP, 3.4 nM PI3Kδ, 120 min, room temperature; read-out: PI3Kδ IC50
Description: PI3Kδ Scintillation Proximity Assay
[γ-^33P]ATP (10 mCi/mL) and Wheat Germ Agglutinin (WGA) YSi SPA Scintillation Beads was purchased from PerkinElmer (Waltham, Mass.). […] PI3Kδ (p110δ/p85α) Recombinant Human Protein was purchased from Eurofins (St Charles, Mo.). ATP, MgCl2, DTT, EDTA, MOPS and CHAPS were purchased from SigmaAldrich (St. Louis, Mo.).
as §1, with “PI3Kδ” for “PI3Kγ”, “ATP, 13 nM PI3Kγ. Reactions were incubated for 120 min and terminated by the addition of 40 μL SPA beads suspended in quench buffer: 163 mM potassium phosphate pH 7.8, 20% glycerol, 25 mM EDTA.” left out, “(PerkinElmer).” for “(Perkin-Elmer).”

PI3Kγ (p110γ) Recombinant Human Protein, sequence (P48736 whole entry): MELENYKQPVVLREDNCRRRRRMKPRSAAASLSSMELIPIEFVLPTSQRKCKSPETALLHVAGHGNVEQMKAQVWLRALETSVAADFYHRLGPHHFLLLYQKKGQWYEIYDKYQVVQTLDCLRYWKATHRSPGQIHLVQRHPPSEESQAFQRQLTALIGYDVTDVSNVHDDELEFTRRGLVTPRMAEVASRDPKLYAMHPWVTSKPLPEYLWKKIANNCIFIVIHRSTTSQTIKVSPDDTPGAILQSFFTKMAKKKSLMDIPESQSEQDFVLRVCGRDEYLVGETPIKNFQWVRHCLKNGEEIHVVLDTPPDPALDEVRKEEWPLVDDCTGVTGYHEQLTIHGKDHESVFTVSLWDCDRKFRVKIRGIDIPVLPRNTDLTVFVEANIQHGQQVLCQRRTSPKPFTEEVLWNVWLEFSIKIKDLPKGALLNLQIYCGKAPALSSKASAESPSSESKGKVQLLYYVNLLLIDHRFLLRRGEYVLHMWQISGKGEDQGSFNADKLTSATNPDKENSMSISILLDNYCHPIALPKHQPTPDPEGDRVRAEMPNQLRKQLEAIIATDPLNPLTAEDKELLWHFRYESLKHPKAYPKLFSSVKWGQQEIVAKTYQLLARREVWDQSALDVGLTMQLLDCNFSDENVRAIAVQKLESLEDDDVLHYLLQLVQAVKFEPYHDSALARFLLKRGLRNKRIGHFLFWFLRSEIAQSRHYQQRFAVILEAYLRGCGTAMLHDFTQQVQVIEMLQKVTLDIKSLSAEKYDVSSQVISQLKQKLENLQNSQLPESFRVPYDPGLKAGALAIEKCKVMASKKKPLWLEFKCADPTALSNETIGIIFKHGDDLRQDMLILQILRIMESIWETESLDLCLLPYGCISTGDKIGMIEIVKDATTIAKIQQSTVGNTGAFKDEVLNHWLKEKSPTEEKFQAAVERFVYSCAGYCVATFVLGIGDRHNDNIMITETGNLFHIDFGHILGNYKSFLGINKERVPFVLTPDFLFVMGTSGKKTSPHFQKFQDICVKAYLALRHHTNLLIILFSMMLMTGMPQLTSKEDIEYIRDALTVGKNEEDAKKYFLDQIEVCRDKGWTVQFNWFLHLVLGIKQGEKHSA
PI3Kδ (p110δ/p85α) Recombinant Human Protein, sequence (O00329 whole entry): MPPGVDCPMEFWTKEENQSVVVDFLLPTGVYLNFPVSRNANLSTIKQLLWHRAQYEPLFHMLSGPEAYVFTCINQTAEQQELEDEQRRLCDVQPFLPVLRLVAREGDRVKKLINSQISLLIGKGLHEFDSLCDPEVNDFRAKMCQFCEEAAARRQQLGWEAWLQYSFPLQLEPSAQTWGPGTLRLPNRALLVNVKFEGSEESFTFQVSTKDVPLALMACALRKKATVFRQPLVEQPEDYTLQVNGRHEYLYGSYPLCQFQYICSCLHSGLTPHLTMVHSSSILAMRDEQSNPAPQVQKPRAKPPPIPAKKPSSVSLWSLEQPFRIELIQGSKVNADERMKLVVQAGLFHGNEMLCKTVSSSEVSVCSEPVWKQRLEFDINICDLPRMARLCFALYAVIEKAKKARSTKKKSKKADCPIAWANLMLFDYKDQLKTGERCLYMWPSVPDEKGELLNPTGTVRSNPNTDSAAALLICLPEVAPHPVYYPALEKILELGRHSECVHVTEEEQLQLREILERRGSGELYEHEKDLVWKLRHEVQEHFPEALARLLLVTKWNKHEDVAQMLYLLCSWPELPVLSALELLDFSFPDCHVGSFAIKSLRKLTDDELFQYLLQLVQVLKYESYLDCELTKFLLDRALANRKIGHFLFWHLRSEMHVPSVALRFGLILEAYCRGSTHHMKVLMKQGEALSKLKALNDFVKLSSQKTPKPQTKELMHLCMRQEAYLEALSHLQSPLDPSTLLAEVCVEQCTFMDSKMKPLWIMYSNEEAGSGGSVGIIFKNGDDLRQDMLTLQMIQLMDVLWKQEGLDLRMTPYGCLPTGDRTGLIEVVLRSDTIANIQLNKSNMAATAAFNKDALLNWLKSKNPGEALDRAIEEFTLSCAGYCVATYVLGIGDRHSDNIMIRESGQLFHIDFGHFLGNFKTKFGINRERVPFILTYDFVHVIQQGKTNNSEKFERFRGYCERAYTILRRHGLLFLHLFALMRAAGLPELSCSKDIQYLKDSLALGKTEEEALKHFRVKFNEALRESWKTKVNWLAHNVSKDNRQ
PI3Kδ (p110δ/p85α) Recombinant Human Protein, sequence (P27986 whole entry partner): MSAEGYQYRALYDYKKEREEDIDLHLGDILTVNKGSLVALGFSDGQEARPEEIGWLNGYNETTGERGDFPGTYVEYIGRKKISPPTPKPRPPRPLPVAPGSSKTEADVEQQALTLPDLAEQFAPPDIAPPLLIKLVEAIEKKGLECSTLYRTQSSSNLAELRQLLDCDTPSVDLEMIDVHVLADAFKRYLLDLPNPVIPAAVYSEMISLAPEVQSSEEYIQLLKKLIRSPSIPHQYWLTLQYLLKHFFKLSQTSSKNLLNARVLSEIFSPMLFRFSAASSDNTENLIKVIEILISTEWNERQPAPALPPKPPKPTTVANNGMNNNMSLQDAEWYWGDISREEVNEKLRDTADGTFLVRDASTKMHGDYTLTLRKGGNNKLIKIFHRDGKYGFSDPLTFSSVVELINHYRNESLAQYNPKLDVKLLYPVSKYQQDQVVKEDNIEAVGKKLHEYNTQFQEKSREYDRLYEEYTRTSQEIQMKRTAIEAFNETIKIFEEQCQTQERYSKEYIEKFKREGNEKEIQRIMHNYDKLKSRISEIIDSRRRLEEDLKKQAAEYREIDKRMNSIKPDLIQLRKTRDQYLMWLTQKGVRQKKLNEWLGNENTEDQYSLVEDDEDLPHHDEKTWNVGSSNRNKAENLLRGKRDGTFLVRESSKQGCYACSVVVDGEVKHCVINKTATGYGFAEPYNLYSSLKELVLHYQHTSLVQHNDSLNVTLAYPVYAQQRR

Row | IC50 [1] | IC50 [2] | Compound
1 | 100 to 500 nM | 500 to 2000 nM | CC(O)(c1cc(-c2cnc3c(N)nc(C(F)(F)F)cn23)c2ccn(S(=O)(=O)c3ccccc3)c2c1)C(F)(F)F (racemic) [Example 224, 2-(4-(8-Amino-6-(trifluoromethyl)imidazo[1,2-a]pyrazin-3-yl)-1-(phenylsulfonyl)-1H-indol-6-yl)-1,1,1-trifluoropropan-2-ol]
2 | < 100 nM | 500 to 2000 nM | Cc1ccc(C(C)(O)C(F)F)cc1-c1cnc2c(N)nc(-c3cncnc3)cn12 (centres unmarked) [Example 32, 2-(3-(8-Amino-6-(pyrimidin-5-yl)imidazo[1,2-a]pyrazin-3-yl)-4-methylpheny1)-1,1-difluoropropan-2-ol]
3 | < 100 nM | 500 to 2000 nM | Cc1ccc(C(C)(O)C(F)F)cc1-c1cnc2c(N)nc(C3CC3CO)cn12 (single isomer, unassigned) [Example 80, 2-(3-(8-Amino-6-(2-(hydroxymethyl)cyclopropyl)imidazo[1,2-a]pyrazin-3-yl)-4-methylphenyl)-1,1-difluoropropan-2-ol]
4 | < 100 nM | 500 to 2000 nM | Cc1ccc(C(C)(O)C(F)F)cc1-c1cnc2c(N)nc(N3CCC(C#N)CC3)cn12 (centres unmarked) [Example 64, 1-(8-Amino-3-(5-(1,1-difluoro-2-hydroxypropan-2-yl)-2-methylphenyl)imidazo[1,2-a]pyrazin-6-yl)piperidine-4-carbonitrile]
5 | < 100 nM | 500 to 2000 nM | Cc1ccc(C(C)(O)C(F)(F)C(F)(F)F)cc1-c1cnc2c(N)nc(C(F)(F)F)cn12 (single isomer, unassigned) [Example 59, 2-(3-(8-Amino-6-(trifluoromethyl)imidazo[1,2-a]pyrazin-3-yl)-4-methylphenyl)-3,3,4,4,4-pentafluorobutan-2-ol]
6 | < 100 nM | 100 to 500 nM | CCNC(=O)c1cn2c(-c3cc(C(O)(CNC(C)=O)C(F)(F)F)ccc3C)cnc2c(N)n1 (centres unmarked) [Example 221, 3-(5-(3-acetamido-1,1,1-trifluoro-2-hydroxypropan-2-yl)-2-methylphenyl)-8-amino-N-ethylimidazo[1,2-a]pyrazine-6-carboxamide trifluoroacetate]
7 | < 100 nM | 100 to 500 nM | Cc1ccc(C(O)(CNC(=O)c2ccccc2)C(F)(F)F)cc1-c1cnc2c(N)nc(C(F)(F)F)cn12 (centres unmarked) [Example 212, N-(2-(3-(8-amino-6-(trifluoromethyl)imidazo[1,2-a]pyrazin-3-yl)-4-methylphenyl)-3,3,3-trifluoro-2-hydroxypropyl)benzamide trifluoroacetate salt]
8 | < 100 nM | – | CC(O)(c1cc(-c2cnc3c(N)nc(C(F)(F)F)cn23)ccc1F)C(F)(F)F (centres unmarked) [Example 55, 2-(5-(8-Amino-6-(trifluoromethyl)imidazo[1,2-a]pyrazin-3-yl)-2-fluorophenyl)-1,1,1-trifluoropropan-2-ol]
9 | < 100 nM | 500 to 2000 nM | Cc1ccc(C(C)(O)C(F)(F)F)cc1-c1cnc2c(N)ncnn12 (centres unmarked) [Example 3, 2-(3-(4-Aminoimidazo[2,1-f][1,2,4]triazin-7-yl)-4-methylphenyl)-1,1,1-trifluoropropan-2-ol]
10 | < 100 nM | 100 to 500 nM | Cc1cn2c(-c3cc(C(C)(O)C(F)(F)F)ccc3C)cnc2c(N)n1 (centres unmarked) [Example 7, 2-(3-(8-Amino-6-methylimidazo[1,2-a]pyrazin-3-yl)-4-methylphenyl)-1,1,1-trifluoropropan-2-ol]
11 | < 100 nM | – | CC(O)(c1cccc(-c2cnc3c(N)nc(C(F)(F)F)cn23)c1)C(F)(F)F (centres unmarked) [Example 56, 2-(3-(8-Amino-6-(trifluoromethyl)imidazo[1,2-a]pyrazin-3-yl)phenyl)-1,1,1-trifluoropropan-2-ol]
12 | < 100 nM | 500 to 2000 nM | Cc1ccc(C(O)(CCNC2CCOCC2)C(F)(F)F)cc1-c1cnc2c(N)nc(C(F)(F)F)cn12 (centres unmarked) [Example 17, 2-(3-(8-Amino-6-(trifluoromethyl)imidazo[1,2-a]pyrazin-3-yl)-4-methylphenyl)-1,1,1-trifluoro-4-((tetrahydro-2H-pyran-4-yl)amino)butan-2-ol bis(2,2,2-trifluoroacetate)]
13 | 100 to 500 nM | 500 to 2000 nM | Cc1ccc(C(C)(O)C(F)(F)F)cc1-c1cnc2c(N)nc(CC(=O)N3CCOCC3)cn12 (centres unmarked) [Example 173, 2-(8-amino-3-(2-methyl-5-(1,1,1-trifluoro-2-hydroxypropan-2-yl)phenyl)imidazo[1,2-a]pyrazin-6-yl)-1-morpholinoethanone trifluoroacetate salt]
14 | < 100 nM | – | Cc1cnc(C(C)(O)C(F)(F)F)cc1-c1cnc2c(N)nc(C(F)(F)F)cn12 (centres unmarked) [Example 54, 2-(4-(8-Amino-6-(trifluoromethyl)imidazo[1,2-a]pyrazin-3-yl)-5-methylpyridin-2-yl)-1,1,1-trifluoropropan-2-ol]
15 | 100 to 500 nM | – | Cc1ncc(C(C)(O)C(F)(F)F)cc1-c1cnc2c(N)nc(C(F)(F)F)cn12 (centres unmarked) [Example 58, 2-(5-(8-Amino-6-(trifluoromethyl)imidazo[1,2-a]pyrazin-3-yl)-6-methylpyridin-3-yl)-1,1,1-trifluoropropan-2-ol]
16 | 100 to 500 nM | 500 to 2000 nM | Cc1ccc(C(C)(O)C(F)(F)F)cc1-c1cnc2c(N)nc(CC(=O)N(C)C)cn12 (centres unmarked) [Example 169, 2-(8-amino-3-(2-methyl-5-(1,1,1-trifluoro-2-hydroxypropan-2-yl)phenyl)imidazo[1,2-a]pyrazin-6-yl)-N,N-dimethylacetamide trifluoroacetate salt]
17 | 500 to 2000 nM | 500 to 2000 nM | CCOC(=O)C1CC1c1cn2c(-c3cc(C(C)(O)C(F)F)ccc3C)cnc2c(N)n1 (single isomer, unassigned) [Example 74, Ethyl 2-(8-amino-3-(5-(1,1-difluoro-2-hydroxypropan-2-yl)-2-methylphenyl)imidazo[1,2-a]pyrazin-6-yl)cyclopropane-1-carboxylate trifluoroacetate salt]
18 | < 100 nM | 100 to 500 nM | [2H]C([2H])([2H])n1nccc1-c1cn2c(-c3cc(C(O)(CO)C(F)(F)F)ccc3C)cnc2c(N)n1 (single isomer, unassigned) [Example 67, 2-(3-(8-Amino-6-(1-(methyl-d3)-1H-pyrazol-5-yl)imidazo[1,2-a]pyrazin-3-yl)-4-methylphenyl)-3,3,3-trifluoropropane-1,2-diol trifluoroacetate salt]
19 | 100 to 500 nM | 100 to 500 nM | Cc1ccc(C(C)(O)C(F)(F)F)cc1-c1cnc2c(N)nc(C(=O)NC34CCN(CC3)C4)cn12 (centres unmarked) [Example 277, 8-Amino-N-(1-azabicyclo[2.2.1]heptan-4-yl)-3-(2-methyl-5-(1,1,1-trifluoro-2-hydroxypropan-2-yl)phenyl)imidazo[1,2-a]pyrazine-6-carboxamide trifluoroacetate salt]
20 | < 100 nM | 100 to 500 nM | [2H]C([2H])([2H])c1ccc(C(O)(C(C)(C)O)C(F)(F)F)cc1-c1cnc2c(N)nc(C(F)(F)F)cn12 (racemic) [Example 235, 2-(3-(8-Amino-6-(trifluoromethyl)imidazo[1,2-a]pyrazin-3-yl)-4-(methyl-d3)phenyl)-1,1,1-trifluoro-3-methylbutane-2,3-diol trifluoroacetate salt]
21 | < 100 nM | – | Cc1cc(F)c(C(C)(O)C(F)(F)F)cc1-c1cnc2c(N)nc(C(F)(F)F)cn12 (centres unmarked) [Example 53, 2-(5-(8-Amino-6-(trifluoromethyl)imidazo[1,2-a]pyrazin-3-yl)-2-fluoro-4-methylphenyl)-1,1,1-trifluoropropan-2-ol]
22 | < 100 nM | – | CC(O)(c1ccc(F)c(-c2cnc3c(N)nc(C(F)(F)F)cn23)c1)C(F)(F)F (centres unmarked) [Example 57, 2-(3-(8-Amino-6-(trifluoromethyl)imidazo[1,2-a]pyrazin-3-yl)-4-fluorophenyl)-1,1,1-trifluoropropan-2-ol]
